Data: PMC10241523 (The Journal of Venomous Animals and Toxins Including …, 2023)
Read-outs that look alike come from different tables or passages of the source. Where a SMILES comes first, the peptide text is derived from it. Bridges are numbered along the chain shown (N, C = ends).

Legend:
[1] = tested on: potassium channel currents in rat DRG neurons; type: cell-based; details: 10 μM
human CaV2.2 (hCaV2.2) = type: cell-based; details: 10 μM
human NaV1.7 (hNaV1.7) = type: cell-based; details: 10 μM
hNaV1.8 = type: cell-based, human
[2] = tested on: sodium channel currents in rat DRG neurons; type: cell-based; details: 10 μM; n = 3
[3] = tested on: calcium channel currents in rat DRG neurons; type: cell-based; details: 10 μM
human CaV1.2 (hCaV1.2) [4] = molecular target: T1, human CaV1.2 (hCaV1.2) (Homo sapiens, UniProt Q13936); assay: cell-based; details: HEK293, read-out: inhibition of hCaV1.2 currents
Kunming mice = details: mouse, in vivo
human CaV1.2 (hCaV1.2) [5] = molecular target: T1, human CaV1.2 (hCaV1.2); details: pH 7.4
human NaV1.3 (hNaV1.3) = type: cell-based; details: 10 μM
ND7/23 cells = details: 48 h
calcium currents = details: cited from earlier work
[6] = tested on: voltage-gated calcium channels; details: cited from earlier work

T1 sequence (Q13936 whole entry, looked up): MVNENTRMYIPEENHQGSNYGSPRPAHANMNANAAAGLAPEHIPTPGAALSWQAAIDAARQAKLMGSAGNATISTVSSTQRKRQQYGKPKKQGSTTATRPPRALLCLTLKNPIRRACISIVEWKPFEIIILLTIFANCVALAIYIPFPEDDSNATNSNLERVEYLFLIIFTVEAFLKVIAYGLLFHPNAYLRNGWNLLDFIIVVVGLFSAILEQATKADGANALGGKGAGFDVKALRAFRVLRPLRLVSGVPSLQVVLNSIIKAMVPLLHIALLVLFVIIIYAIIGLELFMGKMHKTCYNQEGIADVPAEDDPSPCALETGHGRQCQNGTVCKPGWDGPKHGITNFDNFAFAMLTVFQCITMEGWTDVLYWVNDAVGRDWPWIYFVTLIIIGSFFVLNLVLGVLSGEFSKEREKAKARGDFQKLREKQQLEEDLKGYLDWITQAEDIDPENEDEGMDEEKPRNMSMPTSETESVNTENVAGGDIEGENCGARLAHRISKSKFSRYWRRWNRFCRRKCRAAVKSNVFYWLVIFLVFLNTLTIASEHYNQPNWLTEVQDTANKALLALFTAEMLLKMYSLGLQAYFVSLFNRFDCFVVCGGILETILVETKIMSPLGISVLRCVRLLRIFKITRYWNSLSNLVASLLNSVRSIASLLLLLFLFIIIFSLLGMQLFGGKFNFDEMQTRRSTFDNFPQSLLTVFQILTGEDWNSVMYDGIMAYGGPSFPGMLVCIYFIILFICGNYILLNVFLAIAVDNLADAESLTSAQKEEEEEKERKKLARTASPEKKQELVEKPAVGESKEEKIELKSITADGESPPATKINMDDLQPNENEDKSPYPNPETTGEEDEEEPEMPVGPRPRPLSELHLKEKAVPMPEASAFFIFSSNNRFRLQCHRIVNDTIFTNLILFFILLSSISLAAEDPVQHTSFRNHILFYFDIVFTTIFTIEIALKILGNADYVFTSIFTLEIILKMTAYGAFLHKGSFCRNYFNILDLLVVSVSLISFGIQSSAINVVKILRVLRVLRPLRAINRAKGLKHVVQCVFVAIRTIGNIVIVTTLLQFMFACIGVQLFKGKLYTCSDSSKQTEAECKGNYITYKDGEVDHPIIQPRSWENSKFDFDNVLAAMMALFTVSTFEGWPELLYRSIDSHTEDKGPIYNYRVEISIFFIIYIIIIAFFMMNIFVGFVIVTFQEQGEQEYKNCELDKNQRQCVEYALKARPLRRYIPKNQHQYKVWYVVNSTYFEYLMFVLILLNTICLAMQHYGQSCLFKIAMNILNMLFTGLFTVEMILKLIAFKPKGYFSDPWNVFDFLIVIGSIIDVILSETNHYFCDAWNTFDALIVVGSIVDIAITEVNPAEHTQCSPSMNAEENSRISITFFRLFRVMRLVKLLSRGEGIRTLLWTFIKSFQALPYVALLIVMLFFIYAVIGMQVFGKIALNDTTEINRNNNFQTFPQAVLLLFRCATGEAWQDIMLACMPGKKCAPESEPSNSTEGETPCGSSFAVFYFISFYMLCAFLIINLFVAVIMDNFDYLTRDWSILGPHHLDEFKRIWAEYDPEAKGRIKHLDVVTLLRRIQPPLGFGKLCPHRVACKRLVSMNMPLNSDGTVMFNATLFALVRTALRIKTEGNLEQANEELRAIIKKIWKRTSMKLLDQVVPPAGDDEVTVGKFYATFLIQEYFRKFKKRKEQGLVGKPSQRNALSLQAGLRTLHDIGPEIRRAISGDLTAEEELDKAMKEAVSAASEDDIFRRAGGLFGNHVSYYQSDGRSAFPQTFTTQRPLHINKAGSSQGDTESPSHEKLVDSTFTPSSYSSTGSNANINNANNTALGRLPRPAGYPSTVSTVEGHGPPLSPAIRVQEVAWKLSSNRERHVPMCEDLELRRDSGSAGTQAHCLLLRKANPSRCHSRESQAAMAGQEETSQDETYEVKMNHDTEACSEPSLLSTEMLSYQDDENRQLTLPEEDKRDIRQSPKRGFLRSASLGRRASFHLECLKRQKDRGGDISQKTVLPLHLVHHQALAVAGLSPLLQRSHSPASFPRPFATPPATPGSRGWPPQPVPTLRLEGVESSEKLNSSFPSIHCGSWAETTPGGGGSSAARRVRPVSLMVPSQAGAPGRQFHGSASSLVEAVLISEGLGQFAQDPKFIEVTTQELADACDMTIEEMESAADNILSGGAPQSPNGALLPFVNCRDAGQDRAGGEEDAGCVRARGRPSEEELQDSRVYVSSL

CC[C@H](C)[C@H](NC(=O)[C@@H]1CSSC[C@@H]2NC(=O)[C@H](Cc3ccc(O)cc3)NC(=O)[C@H]([C@@H](C)CC)NC(=O)[C@H](C(C)C)NC(=O)CNC(=O)[C@H](CC(C)C)NC(=O)[C@H](CC(C)C)NC(=O)[C@H](CO)NC(=O)[C@H](C)NC(=O)[C@@H]3CCCN3C(=O)[C@@H]3CSSC[C@H](NC(=O)[C@H]([C@@H](C)CC)NC(=O)[C@H](CC(C)C)NC(=O)CNC(=O)[C@H](CCC(=O)O)NC(=O)[C@H](CSSC[C@H](NC(=O)[C@@H](N)CC(=O)O)C(=O)N[C@@H](Cc4c[nH]cn4)C(=O)N[C@@H](CCC(=O)O)C(=O)N[C@@H](CCCNC(=N)N)C(=O)N[C@@H](Cc4c[nH]c5ccccc45)C(=O)N[C@@H](CC(=O)O)C(=O)N[C@@H](Cc4c[nH]c5ccccc45)C(=O)N3)NC2=O)C(=O)N[C@@H](Cc2ccccc2)C(=O)N[C@@H]([C@@H](C)CC)C(=O)N[C@@H](C)C(=O)N[C@@H](Cc2ccccc2)C(=O)N1)C(=O)O [Tx6.7] (H-DCHERWDWCPASLLGVIYCCEGLICFIAFCI-OH; disulfide 2-20, 9-25, 19-30)
inhibition of peak potassium currents [1]: 22.33 ± 7.81%
inhibition of hCaV2.2 currents (human CaV2.2 (hCaV2.2)): 24.67 ± 0.91%
effects on hNaV1.7 currents (human NaV1.7 (hNaV1.7)): no obvious effects
inhibition of hNaV1.8 currents (hNaV1.8): 7.30 ± 3.38%
inhibitory effects on the sodium currents in rat DRG neurons [2]: no inhibitory effects
shift in the current-voltage relationship, sodium currents [2]: did not induce a shift in the current-voltage relationship
inhibition of peak calcium currents [3]: 59.29 ± 2.34%
shift in the current-voltage relationship, calcium currents ([3]; n = 3): did not induce a shift in the current-voltage relationship of calcium currents
inhibition at 10 µM (human CaV1.2 (hCaV1.2) [4]): 56.6 ± 3.2%
pain threshold (Kunming mice): increased
pain threshold increment percentage (maximum) (Kunming mice): 98.91%
time of maximum analgesic effect (Kunming mice): 2 h
IC50 (human CaV1.2 (hCaV1.2) [5]): 9.63 ± 1.12 µM
effects on hNaV1.3 currents (human NaV1.3 (hNaV1.3)): no obvious effects
cytotoxicity against ND7/23 cells (ND7/23 cells): no significant cytotoxicity
Cell viability (ND7/23 cells; 0.01 μM): 101.95%
Cell viability (ND7/23 cells; 0.1 μM): 105.01%
Cell viability (ND7/23 cells; 1 μM): 99.18%
Cell viability (ND7/23 cells; 10 μM): 98.60%
Cell viability (ND7/23 cells; 100 μM): 94.80%
Cell viability at all detected concentrations (ND7/23 cells; 100 μM): more than 94%

Ziconotide
inhibition of calcium currents (ω family conotoxins) (calcium currents): inhibiting calcium currents
block of voltage-gated calcium channels (ω family) [6]: blockers of voltage-gated calcium channels
analgesic effect compared with Tx6.7 (Kunming mice): better analgesic effect than Tx6.7
